From US10856562B2, “Flavor composition and edible compositions containing same” (MARS, INCORPORATED, priority 2013, dated 2020)
Square brackets hold non-standard residues; d marks the D form. Ends that are not written are not given here. pGlu = O=C1CC[C@@H](C(=O)O)N1

Tested on: panelists
Assay: Consensus attribute scores of flavor enhancers in Uncle Ben's Garden Vegetable Ready rice
Assay type: in vivo, human
Set-up: key to Cooked White Rice / Vegetable Oil / Vegetable Complex / Cooked Green Vegetable / Cooked Corn / Sweet (BASIC TASTES) / Salt (BASIC TASTES) / Mouthdrying (Texture) / Residual Mouthcoating (Texture) / Total Aromatics / Bitter (BASIC TASTES): 15-point scale, 0 = none, 15 = very strong
Details: for Black Pepper / Cooked Corn / Cooked Green Vegetable / Cooked White Rice / Dehydrated onion/garlic / HVP/Brothy / Heat (Chemical Feeling Factors) / Mineral/Flint / Mouthdrying (Texture) / Residual Mouthcoating (Texture) / Salt (BASIC TASTES) / Sweet (BASIC TASTES) / Total Aromatics / Umami (Chemical Feeling Factors) / Vegetable Complex / Vegetable Oil / Bitter (BASIC TASTES) / Salt Burn (Chemical Feeling Factors): rice
Description: Descriptive attributes (e.g., taste, flavor and chemical feeling factors) of three use levels of pGlu-Cys (FE-35), pGlu-Cys-Gly (FE-36), pGlu-Cys-Cys (FE-37), pGlu-Cys-Val (FE-38) and pGlu-Val-Cys (UE-30) flavor composition peptides were determined. The three use levels were as follows: 1.0 ppb, 10.0 ppb and 100.0 ppb.
Data was collected for the attributes of the product in-mouth for the use levels according to the following protocol: • The samples were analyzed for flavor by six to nine members of a panel, trained and experienced in flavor evaluation using the Spectrum™ method. Samples were evaluated across multiple panel sessions. • The strength of each attribute was rated on a 15-point scale, where 0=none and 15=very strong. • This scale incorporates the ability to use tenths of a point and therefore has the potential of 150 scale differentiations. • The scale may be expanded beyond 15 points to include extreme ratings if necessary.
Preparation of Rice Samples • Each flavor enhancer was tested in Uncle Ben's Garden Vegetable Ready rice matrix at 3 different concentrations: 1 ppb, 10 ppb and 100 ppb. A total of 15 points with flavor enhancers were prepared for sensory evaluation. Additionally, 15 control samples were prepared. Each point had 2 samples (test and control) and was made from one pouch of rice. • Directions to prepare the solutions: • The 15 ready- to eat pouches were microwaved according to the procedure found on the back of the pouch: (1) squeeze pouch to separate rice, (2) tear two inches to vent, (3) heat on High for 90 seconds and (4) remove from microwave using COOL TOUCH area on untorn side. • From each pouch 124.75 g (test sample) and 99.8 g (control) were weighed out. The test sample had the flavor enhancer and/or salt. The control sample only had salt added. • The flavor enhancer and/or salt (non-iodized salt) were weighed in a soufflé cup. The weighed amount of flavor enhancer and/or salt was added to the sub-sampled rice. The rice was stirred and mixed to evenly distribute the salt added. • Some rice was placed back into the soufflé cup, sealed, and the cup was shook to get the flavor enhancer and/or salt that may have been stuck on the walls of the soufflé cup. After shaking the soufflé cup, the rice was added back to the original sub-sampled rice and stirred/mixed again. • Each sample (test and control) was microwaved for another 30 seconds (or until warm) to ensure that the salts/compounds were going completely into the solutions. • All samples (test and control) were tasted at the same temperature. • Each test sample had 0.2% NaCl added and flavor enhancers at the specified concentrations.
A summary of the concentrations of NaCl and flavor composition peptides in the rice samples is described in table 23. The first value of each cell represents a single sample amount of an ingredient in milligrams, and the second number in parenthesis is a doubling of the ingredient (in grams) for use in a doubled size sample.
The panelists evaluated each sample for the attributes described by table 25.

With [pGlu]-Cys [FE-35] the “Umami feeling factor in rice compared to the Control” value (10 & 100 ppb) was “higher”, the “Salt in rice compared to the Control” value (100 ppb) was “saltier than the Control” and the “Heat in rice, not seen in the Control” value (all concentrations) was “low level”. The “Cooked green vegetable in rice compared to the Control” value (all samples (1, 10, 100 ppb)) was “low level of cooked green vegetable”, the “Mouthdrying in rice, not seen in the Control” value (all samples (1, 10, 100 ppb)) was “low level” and the “Total aromatics in rice” value (at 50 ppm) was “slightly lower”. The “Black Pepper” value (1.0 ppb (5 ppm)) was 1.0, the “Cooked Corn” value (1.0 ppb (5 ppm)) was 0.5 and the “Cooked Green Vegetable” value (1.0 ppb (5 ppm)) was 0.5. For the same substance, the “Cooked White Rice” value (1.0 ppb (5 ppm)) was 3.0, the Dehydrated onion/garlic (1.0 ppb (5 ppm)) was 0.8 and the HVP/Brothy (1.0 ppb (5 ppm)) was 1.0. The “Heat (Chemical Feeling Factors)” value (1.0 ppb (5 ppm)) was 0.8, the Mineral/Flint (1.0 ppb (5 ppm)) was 0.8 and the “Mouthdrying (Texture)” value (1.0 ppb (5 ppm)) was 1.5. For the same substance, the “Residual Mouthcoating (Texture)” value (1.0 ppb (5 ppm)) was 1.0, the “Salt (BASIC TASTES)” value (1.0 ppb (5 ppm)) was 13.0 and the “Sweet (BASIC TASTES)” value (1.0 ppb (5 ppm)) was 3.5. The “Total Aromatics” value (1.0 ppb (5 ppm)) was 6.3, the “Umami (Chemical Feeling Factors)” value (1.0 ppb (5 ppm)) was 1.0 and the “Vegetable Complex” value (1.0 ppb (5 ppm)) was 1.0. The “Vegetable Oil” value (1.0 ppb (5 ppm)) was 0.5, the “Black Pepper” value (10.0 ppb (50 ppm)) was 0.8 and the “Cooked Corn” value (10.0 ppb (50 ppm)) was 0.8. The “Cooked Green Vegetable” value (10.0 ppb (50 ppm)) was 0.8, the “Cooked White Rice” value (10.0 ppb (50 ppm)) was 3.0 and the Dehydrated onion/garlic (10.0 ppb (50 ppm)) was 0.8. For the same substance, the HVP/Brothy (10.0 ppb (50 ppm)) was 1.0, the “Heat (Chemical Feeling Factors)” value (10.0 ppb (50 ppm)) was 0.5 and the Mineral/Flint (10.0 ppb (50 ppm)) was 1.3. The “Mouthdrying (Texture)” value (10.0 ppb (50 ppm)) was 1.0, the “Residual Mouthcoating (Texture)” value (10.0 ppb (50 ppm)) was 1.0 and the “Salt (BASIC TASTES)” value (10.0 ppb (50 ppm)) was 13.5. For the same substance, the “Sweet (BASIC TASTES)” value (10.0 ppb (50 ppm)) was 3.5, the “Total Aromatics” value (10.0 ppb (50 ppm)) was 6.0 and the “Umami (Chemical Feeling Factors)” value (10.0 ppb (50 ppm)) was 3.0. The “Vegetable Complex” value (10.0 ppb (50 ppm)) was 1.3, the “Vegetable Oil” value (10.0 ppb (50 ppm)) was 0.5 and the “Black Pepper” value (100 ppb (50 ppm)) was 1.0. The “Cooked Corn” value (100 ppb (50 ppm)) was 0.8, the “Cooked Green Vegetable” value (100 ppb (50 ppm)) was 0.8 and the “Cooked White Rice” value (100 ppb (50 ppm)) was 3.0. The Dehydrated onion/garlic (100 ppb (50 ppm)) was 1.0, the HVP/Brothy (100 ppb (50 ppm)) was 1.0 and the “Heat (Chemical Feeling Factors)” value (100 ppb (50 ppm)) was 0.5. The Mineral/Flint (100 ppb (50 ppm)) was 1.0, the “Mouthdrying (Texture)” value (100 ppb (50 ppm)) was 1.0 and the “Residual Mouthcoating (Texture)” value (100 ppb (50 ppm)) was 1.0. For the same substance, the “Salt (BASIC TASTES)” value (100 ppb (50 ppm)) was 15.0, the “Sweet (BASIC TASTES)” value (100 ppb (50 ppm)) was 3.5 and the “Total Aromatics” value (100 ppb (50 ppm)) was 6.5. For the same substance, the “Umami (Chemical Feeling Factors)” value (100 ppb (50 ppm)) was 4.0, the “Vegetable Complex” value (100 ppb (50 ppm)) was 1.5 and the “Vegetable Oil” value (100 ppb (50 ppm)) was 0.8.
For “[pGlu]-Cys-Cys (cysteine pairing not given here) [FE-37]”, the Bitter in rice (all samples (1, 10, 100 ppb)) was “low in bitter”, the “Cooked green vegetable in rice compared to the Control” value (all samples (1, 10, 100 ppb)) was “low level of cooked green vegetable” and the “Mineral/flint note in rice, not seen in the Control” value (all samples (1, 10, 100 ppb)) was “low mineral/flint note”. The “Mouthdrying in rice, not seen in the Control” value (all samples (1, 10, 100 ppb)) was “have mouthdrying”, the “Salt burn feeling factor in rice compared to the Control” value (all samples (1, 10, 100 ppb)) was “higher” and the “Salt in rice compared to the Control” value (all samples (1, 10, 100 ppb)) was “saltier than the Control”. The “Umami feeling factor in rice compared to the Control” value (all samples (1, 10, 100 ppb)) was “higher”, the “Bitter (BASIC TASTES)” value (1.0 ppb (5 ppm)) was 0.8 and the “Black Pepper” value (1.0 ppb (5 ppm)) was 1.0. For the same substance, the “Cooked Corn” value (1.0 ppb (5 ppm)) was 0.5, the “Cooked Green Vegetable” value (1.0 ppb (5 ppm)) was 0.5 and the “Cooked White Rice” value (1.0 ppb (5 ppm)) was 3.0. It also gave a Dehydrated onion/garlic (1.0 ppb (5 ppm)) of 1.3, an HVP/Brothy (1.0 ppb (5 ppm)) of 1.0 and a Mineral/Flint (1.0 ppb (5 ppm)) of 0.8. The “Mouthdrying (Texture)” value (1.0 ppb (5 ppm)) was 1.0, the “Residual Mouthcoating (Texture)” value (1.0 ppb (5 ppm)) was 1.0 and the “Salt (BASIC TASTES)” value (1.0 ppb (5 ppm)) was 15.0. For the same substance, the “Salt Burn (Chemical Feeling Factors)” value (1.0 ppb (5 ppm)) was 0.8, the “Sweet (BASIC TASTES)” value (1.0 ppb (5 ppm)) was 3.0 and the “Total Aromatics” value (1.0 ppb (5 ppm)) was 6.0. For the same substance, the “Umami (Chemical Feeling Factors)” value (1.0 ppb (5 ppm)) was 1.5, the “Vegetable Complex” value (1.0 ppb (5 ppm)) was 1.0 and the “Vegetable Oil” value (1.0 ppb (5 ppm)) was 0.8. For the same substance, the “Bitter (BASIC TASTES)” value (10.0 ppb (50 ppm)) was 1.5, the “Black Pepper” value (10.0 ppb (50 ppm)) was 1.0 and the “Cooked Corn” value (10.0 ppb (50 ppm)) was 0.5. The “Cooked Green Vegetable” value (10.0 ppb (50 ppm)) was 0.5, the “Cooked White Rice” value (10.0 ppb (50 ppm)) was 3.0 and the Dehydrated onion/garlic (10.0 ppb (50 ppm)) was 1.5. For the same substance, the HVP/Brothy (10.0 ppb (50 ppm)) was 1.5, the Mineral/Flint (10.0 ppb (50 ppm)) was 0.8 and the “Mouthdrying (Texture)” value (10.0 ppb (50 ppm)) was 1.5. For the same substance, the “Residual Mouthcoating (Texture)” value (10.0 ppb (50 ppm)) was 1.0, the “Salt (BASIC TASTES)” value (10.0 ppb (50 ppm)) was 15.5 and the “Salt Burn (Chemical Feeling Factors)” value (10.0 ppb (50 ppm)) was 1.3. For the same substance, the “Sweet (BASIC TASTES)” value (10.0 ppb (50 ppm)) was 3.5, the “Total Aromatics” value (10.0 ppb (50 ppm)) was 6.5 and the “Umami (Chemical Feeling Factors)” value (10.0 ppb (50 ppm)) was 2.5. The “Vegetable Complex” value (10.0 ppb (50 ppm)) was 1.0, the “Vegetable Oil” value (10.0 ppb (50 ppm)) was 0.8 and the “Bitter (BASIC TASTES)” value (100 ppb (50 ppm)) was 1.0. For the same substance, the “Black Pepper” value (100 ppb (50 ppm)) was 1.0, the “Cooked Corn” value (100 ppb (50 ppm)) was 0.8 and the “Cooked Green Vegetable” value (100 ppb (50 ppm)) was 0.8. The “Cooked White Rice” value (100 ppb (50 ppm)) was 3.0, the Dehydrated onion/garlic (100 ppb (50 ppm)) was 1.5 and the HVP/Brothy (100 ppb (50 ppm)) was 1.5. For the same substance, the Mineral/Flint (100 ppb (50 ppm)) was 1.0, the “Mouthdrying (Texture)” value (100 ppb (50 ppm)) was 1.5 and the “Residual Mouthcoating (Texture)” value (100 ppb (50 ppm)) was 1.0. The “Salt (BASIC TASTES)” value (100 ppb (50 ppm)) was 16.0, the “Salt Burn (Chemical Feeling Factors)” value (100 ppb (50 ppm)) was 1.8 and the “Sweet (BASIC TASTES)” value (100 ppb (50 ppm)) was 3.5. The “Total Aromatics” value (100 ppb (50 ppm)) was 6.5, the “Umami (Chemical Feeling Factors)” value (100 ppb (50 ppm)) was 3.0 and the “Vegetable Complex” value (100 ppb (50 ppm)) was 1.5. The “Vegetable Oil” value (100 ppb (50 ppm)) was 0.8.
